# Data from patent US20070037820A1, “Substituted piperazines as metabotropic glutamate receptor antagonists” (AstraZeneca AB, priority 2005, published 2007).
# Target: T1, human mGluR5d (Homo sapiens, UniProt P41594)
# T1 construct: expressed in transfected cells; host or cells: GHEK (Human Embryonic Kidney cells expressing glutamate transporter) for the IP3 assay
# Experiment: Functional assessment of mGluR5 antagonism in cell lines expressing mGluR5d (FLIPR calcium mobilization / IP3 turnover; which assay gave the values is not stated)
# Format: cell-based
# Settings: cells expressing human mGluR5d; assay (FLIPR or IP3) not specified
# Source text: The pharmacological properties of the compounds of the invention can be analyzed using standard assays for functional activity. Examples of glutamate receptor assays are well known in the art as described in for example Aramori et al., Neuron 8:757 (1992), Tanabe et al., Neuron 8:169 (1992), Miller et al., J. Neuroscience 15: 6103 (1995), Balazs, et al., J. Neurochemistry 69:151 (1997). The methodology described in these publications is incorporated herein by reference. Conveniently, the compounds of the invention can be studied by means of an assay that measures the mobilization of intracellular calcium, [Ca^2+]i in cells expressing mGluR5.
# Intracellular calcium mobilization was measured by detecting changes in fluorescence of cells loaded with the fluorescent indicator fluo-3. Fluorescent signals were measured using the FLIPR system (Molecular Devices). […]
# FLIPR experiments were done using a laser setting of 0.800 W and a 0.4 second CCD camera shutter speed. […] After each addition of the compound, the fluorescence signal was sampled 50 times at 1 second intervals followed by 3 samples at 5 second intervals. Responses were measured as the peak height of the response within the sample period. […]
# We have validated a secondary functional assay for mGluR5d based on Inositol Phosphate (IP3) turnover. IP3 accumulation is measured as an index of receptor mediated phospholipase C turnover. […]
# T1 sequence (P41594 21-942 isoform P41594-3 limits assumed): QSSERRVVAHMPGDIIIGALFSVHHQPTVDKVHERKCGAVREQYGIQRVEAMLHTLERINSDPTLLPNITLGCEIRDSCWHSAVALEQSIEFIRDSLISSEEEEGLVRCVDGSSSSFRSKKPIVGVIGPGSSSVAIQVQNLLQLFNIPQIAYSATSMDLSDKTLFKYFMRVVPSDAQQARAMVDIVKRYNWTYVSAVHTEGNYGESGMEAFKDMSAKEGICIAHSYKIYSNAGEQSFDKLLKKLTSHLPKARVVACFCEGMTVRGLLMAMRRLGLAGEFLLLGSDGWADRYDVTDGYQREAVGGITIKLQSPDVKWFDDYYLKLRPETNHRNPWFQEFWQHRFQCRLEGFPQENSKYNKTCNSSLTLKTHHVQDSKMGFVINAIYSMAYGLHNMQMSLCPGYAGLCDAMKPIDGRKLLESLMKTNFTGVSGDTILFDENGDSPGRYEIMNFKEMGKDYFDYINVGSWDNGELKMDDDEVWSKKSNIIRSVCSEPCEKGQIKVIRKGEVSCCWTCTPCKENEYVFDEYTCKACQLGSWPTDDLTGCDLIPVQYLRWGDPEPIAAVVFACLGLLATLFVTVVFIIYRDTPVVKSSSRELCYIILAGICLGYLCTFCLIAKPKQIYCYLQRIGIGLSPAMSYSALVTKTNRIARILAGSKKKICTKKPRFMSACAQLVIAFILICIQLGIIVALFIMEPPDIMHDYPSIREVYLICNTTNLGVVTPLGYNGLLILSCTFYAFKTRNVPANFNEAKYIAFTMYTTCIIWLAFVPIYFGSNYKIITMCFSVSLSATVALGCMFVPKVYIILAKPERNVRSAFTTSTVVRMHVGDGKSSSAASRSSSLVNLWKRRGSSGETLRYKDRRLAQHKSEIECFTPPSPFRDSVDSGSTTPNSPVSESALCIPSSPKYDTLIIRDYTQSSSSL
row,Compound,IC50 [nM]
1,"CC(c1noc(-c2cccc(Cl)c2)n1)N1CCN(c2nccnc2C#N)CC1 (centres unmarked) [Example 15.11, 3-(4-{1-[5-(3-chlorophenyl)-1,2,4-oxadiazol-3-yl]ethyl}piperazin-1-yl) pyrazine-2-carbonitrile]",101
2,"N#Cc1ccc(N2CCN(Cc3cc(-c4cc(Cl)ccc4F)on3)CC2)nc1 [Example 16.1, 6-(4-{[5-(5-chloro-2-fluorophenyl)isoxazol-3-yl]methyl}piperazin-1-yl) nicotinonitrile]",199
